Laboratory results reported in patent US10253255B2, “Phosphorescent nanoparticles and their uses in biosensing and bioimaging” (University of North Texas, priority 2015, dated 2019).

Columns and labels:
[1] = system: SNU-5 cells; experiment: MTT cell viability (cytotoxicity); conditions: SNU-5 cell lines, buffered aqueous solution, FIG. 15
Method: SNU-5 cells were purchased from ATCC (cat. # CRL-5973) (American Type Culture Collection, Manassas, Va.), and maintained in Iscove's Modified Dulbecco's Medium (IMDM) (ATCC, cat. #30-2005) with 10% FBS (Fisherbrand Research Grade Fetal Bovine Serum, cat. #03-600-511) (Fisher Scientific UK Ltd., Loughborough). Cells (10,000/well) were seeded on 96-well plates and the desired particle amounts were added to the wells. The plates were incubated for an additional 24 h at 37° C. (5% CO2). After incubation, cell viability was evaluated using MTT. MTT dissolved in culture media (5 mg/mL) was added to each well (25 L/well). The cells were incubated for 4 h at 37° C. (5% CO2) after which time 0.08 M HCl in 2-propanol (100 L/well) was added. Light absorption was measured on a Synergy 2 multi-mode microplate reader (BioTek, Winooski, Vt.). The viability of the cells exposed to particles was expressed as a percentage of the viability of cells grown in the absence of particles on the same plate.
Cells were grown to ˜90% confluence in 96 well plate format in complete growth media containing 10% fetal bovine serum. PCHNPs or TPPTs in 0.1 wt % chitosan were dosed on cells at concentrations ranging from 0.5 to 200 μg/mL. Viability after 24 h of exposure was evaluated using MTT reagent and compared to healthy cells on the same plate. […]

[2] = In vitro hypoxia detection by Pt—POP (epi-fluorescence microscope); conditions: Pt—POP aqueous solution in a Petri dish
Excerpt: For identification of hypoxic environments, Pt—POP has been used. The efficiency of Pt—POP as an oxygen sensor is shown in FIG. 16, including its effective usage for live bioimaging applications. […] The progressive phosphorescence intensity signal increase immediately after oxygen levels are decreased below 20% for the Pt—POP aqueous solution in a Petri dish should be noted. Results for this sensor in conjunction with the excellent animal model for hypoxia, C. elegans worms, are shown in FIG. 17, whereas similar results in E. coli bacteria and in D. rerio zebra fish are shown in FIGS. 18 and 19, respectively. In FIG. 18, conditions were: 18A: E. coli bacteria with 64X, DIC; 18B: E. coli bacteria with 64X, 405-520,222 g, 0.4 ms; 18C: E. coli bacteria incubated with Pt—POP 64X, 405-520,222 g, 0.4 ms; 18D: E. coli bacteria incubated with Pt—POP on 8th day 64X, 405-520,222 g, 0.4 ms. In FIG. 19, pictures were taken for stationary fish directly after injection (A) and 7 minutes after induced hypoxia (B), and for a swimming fish (C).

[3] = molecular target: T1, Bovine Serum Albumin (BSA) (Bos taurus, UniProt P02769); experiment: Labelling of BSA with Pt—POP, absorbance after dialysis; assay type: binding; conditions: after 24 hours of dialysis
T1 construct: purchased Sigma-Aldrich
Excerpt: A common model protein (BSA=bovine serum albumin) was labeled with Pt—POP to enable BSA differentiation, with oxygen sensitivity, in biological media.

[4] = Storage and solution stability

T1 sequence (P02769 25-607): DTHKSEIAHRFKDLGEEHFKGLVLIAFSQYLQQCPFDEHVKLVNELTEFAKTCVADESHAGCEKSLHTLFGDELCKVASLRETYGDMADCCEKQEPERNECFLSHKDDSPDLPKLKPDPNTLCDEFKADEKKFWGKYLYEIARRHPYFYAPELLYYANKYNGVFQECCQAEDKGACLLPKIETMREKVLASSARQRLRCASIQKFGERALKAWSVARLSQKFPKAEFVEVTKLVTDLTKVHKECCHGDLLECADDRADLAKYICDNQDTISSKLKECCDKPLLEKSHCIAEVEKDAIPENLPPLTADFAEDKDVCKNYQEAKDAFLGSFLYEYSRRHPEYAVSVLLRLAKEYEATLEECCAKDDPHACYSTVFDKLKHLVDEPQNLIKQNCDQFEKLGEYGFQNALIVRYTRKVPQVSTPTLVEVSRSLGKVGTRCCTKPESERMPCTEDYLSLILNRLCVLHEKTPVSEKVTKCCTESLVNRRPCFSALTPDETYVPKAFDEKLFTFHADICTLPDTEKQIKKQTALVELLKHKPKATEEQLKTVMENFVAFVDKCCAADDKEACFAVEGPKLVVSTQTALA

Compound | biological toxicity (MTT assay) [1] | oxygen level below which phosphorescence intensity signal increases [2] | absorbance of PBS control lower than BSA sample (binding to BSA) [3] | stability in solution ([4]; in presence of a biocompatible polymer such as chitosan or PAN) | stability in solution ([4]; without polymer)
O=S(=O)([O-])c1cccc(P(c2cccc(S(=O)(=O)[O-])c2)c2cccc(S(=O)(=O)[O-])c2)c1.[Na+].[Na+].[Na+] [TPPTS, 3,3′,3″-Phosphanetriyltris(benzenesulfonic acid) trisodium salt, reference compound] | benign | – | – | – | –
M4[Pt2(P2O5H2)4].2H2O [Pt—POP] | – | below 20% | approximately 10 times | dramatically enhanced from minutes to years | long-term instability
Na8[Au(TPPTS)3] [AuP] | benign | – | – | – | –
